Assay results as given in patent US20040214839A1, “Therapeutic methods” (priority 2001, published 2004).

Assays:
[1] = tested on: IL-10 release from U937 cells; experiment: IL-10 release from U937 cells (ELISA); assay type: cell-based, human; conditions: for stimulation of IL-10 in the presence of a type IV selective PDE inhibitor: with vs without type IV selective PDE inhibitor (rolipram)
Description: U 937 cells were grown in RPMI (PAA Laboratories) medium with 10% fetal calf serum added (PAA Laboratories). 2×10^6 cells per flask were treated with prostaglandin E2 at 10^−6 Molar or with Rolipram (4×10^−6) for 24 hours. Medium was removed at […] and analysed by ELISA. A capture antibody (Pharmingen) was coated onto 96 well plates and culture medium was added each well. A standard curve was created with recombinant IL-10 protein. After incubation and washing, a biotin labelled monoclonal antibody (Pharmingen) was added and following incubation and washing, peroxidase labelled streptavidin was added. After washing a tetramethyl benzidine substrate was added and colour developed in proportion to IL-10 in the original sample/standard. Colour was read using a plate photometer (Labsystems, Multiskan). Mean concentrations (N=3) in controls with no lipopolysaccharide (LPS) were 38.2 pg/ml and in the presence of LPS (100 nM) they were 43.9 […].
The effect of PGE1, PGE2, 19 hydroxy PGE1 and 19 hydroxy PGE2 on the stimulation of IL-10 in the presence and absence of rolipram was investigated as described above in Example 2. IL-10 levels were measured using an ELISA assay (R&D Ltd, Oxford). Measurements were taken in accordance with the manufacturer's instructions.

[2] = tested on: phosphodiesterase IV-b mRNA; experiment: Phosphodiesterase IV b mRNA in U937 cells (Taqman); assay type: cell-based, human; conditions: four hours of incubation; PGE 1×10^-6, 19-hydroxy PGE2 5×10^-6; without inhibitor
Description: After the incubation (20 hours), cells were pelleted and the mRNA was extracted with Tri-reagent (Sigma, Poole, UK). Total RNA was obtained by addition of chloroform and subsequent isopropanol precipitation. RNA was reverse transcribed with reverse transcriptase (Applied Biosystems) and random hexamers (Applied Biosystems). Probes and primers for IL-10 and IL-12 (p35) were designed using Primer Express (Applied Biosystems) and were as follows:
Template was amplified in a Taqman 7700 machine for 40 cycles using FAM/TAMRA dyes on the probe. The Applied Biosystems kit was used to amplify and detect ribosomal (18S)RNA (using VIC/TAMRA dyes) as an internal control in the same reaction tube. After 40 cycles the Ct (related to cycle number at which signal appears) for the FAM and the 18S (VIC) were recorded and […] relative quantitation was achieved using the formula 2^−ΔΔct where Δ refers to the difference between the FAM and VIC signal related to an standard comparator included in each run.
The mRNA for phosphodiesterase IV-b was measured as described in Example 2 above mRNA was extracted after four hours of incubation. The concentration of the PGE was 1×10^−6 and that of the 19-hydroxy PGE2 was 5×10^−6. The following primers and Taqman probe were used for quantitation of PDE IV b mRNA.

[3] = in vivo; cited from earlier work
type IV PDE = conditions: cited from earlier work; for IC50: type IV PDE inhibitor

Row | Molecule | stimulation of IL-10 in the presence of a type IV selective PDE inhibitor [1] | PDE activity (phosphodiesterase IV b mRNA) after prostaglandin application [2] | IC50 (type IV PDE) [µM] | also measured
1 | 19-hydroxy PGE2 | increased strikingly | increase | – | concentration necessary to achieve similar effects to PGE ([1]; compared with PGE, Figures and Examples): higher concentration
2 | CCCCC(C)(O)CC=C[C@H]1[C@H](O)CC(=O)[C@@H]1CCCCCCC(=O)OC (mixture of isomers) [misoprostol, (±) methyl 11α, 16-dihydroxy-16-methyl-9-oxoprost-13-enoate] | – | – | – | hypotension [3]: does not cause hypotension
3 | CCCCC[C@H](O)/C=C/[C@H]1[C@H](O)CC(=O)[C@@H]1C/C=C\CCCC(=O)O [PGE, prostaglandin E2] | increased strikingly | increase | – | –
4 | CCCCOc1cc(CC2CNC(=O)N2)ccc1OC (stereo not drawn) [Ro-20-1724, 4-[3-butoxy-4-methoxybenzyl]-2-imidazolidinone] | – | – | 2 | –
5 | COc1ccc(C2CNC(=O)C2)cc1OC1CCCC1 (stereo not drawn) [rolipram, 4-[3-cyclopentyloxy 4-methoxyphenyl]-2-pyrrolidinone] | – | – | 0.8 | –
6 | Cn1c(=O)c2[nH]cnc2n(C)c1=O [theophylline] | – | – | – | times less effective than rolipram (type IV PDE; non-selective inhibitor compared with rolipram): 30 times
